According to patent publication US7414036B2, “Compounds useful as A3 adenosine receptor agonists” (Muscagen Limited, priority 2002, dated 2008):
Where “and” joins values, the source holds several entries; their conditions need not be identical. Equal values may be shown once. One block for each molecule: values may come before it.

Columns and labels:
[1] = target: T1, human A3 receptors (Homo sapiens, UniProt P0DMS8); assay: A3 receptor radioligand binding, displacement of [125I]-AB-MECA; conditions: for IC50: displacement of [125I]-AB-MECA (0.3 nM), human A3 receptors expressed in CHO cells, membranes, 60 min room temperature; for % Displacement of [125I]-AB-MECA: human A3 receptors in CHO cells
T1 construct: expressed in transfected cells; host or cells: CHO cells (membrane preparations)
T1 sequence (P0DMS8 1-318): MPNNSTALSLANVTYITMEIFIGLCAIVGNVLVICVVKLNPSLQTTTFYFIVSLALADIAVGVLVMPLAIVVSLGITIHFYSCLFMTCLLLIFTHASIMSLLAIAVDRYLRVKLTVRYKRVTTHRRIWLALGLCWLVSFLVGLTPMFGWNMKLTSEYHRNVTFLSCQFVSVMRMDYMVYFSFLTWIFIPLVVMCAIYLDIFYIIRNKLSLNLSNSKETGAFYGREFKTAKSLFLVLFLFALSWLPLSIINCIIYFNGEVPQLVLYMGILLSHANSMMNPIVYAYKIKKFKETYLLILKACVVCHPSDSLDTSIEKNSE

[2] = target: T2, A1 receptor (Cavia porcellus, UniProt P47745); assay: A1 receptor functional activity, negative inotropic response of isolated paced left atria; design: species or system guinea-pig; conditions: for IC25, negative inotropic action at A1 receptors of guinea-pig atria: concentration for 25% of the maximum response to NECA, cumulative concentration-response curves
T2 construct: from tissue; host or cells: guinea-pig isolated paced left atria
T2 sequence (P47745 1-326): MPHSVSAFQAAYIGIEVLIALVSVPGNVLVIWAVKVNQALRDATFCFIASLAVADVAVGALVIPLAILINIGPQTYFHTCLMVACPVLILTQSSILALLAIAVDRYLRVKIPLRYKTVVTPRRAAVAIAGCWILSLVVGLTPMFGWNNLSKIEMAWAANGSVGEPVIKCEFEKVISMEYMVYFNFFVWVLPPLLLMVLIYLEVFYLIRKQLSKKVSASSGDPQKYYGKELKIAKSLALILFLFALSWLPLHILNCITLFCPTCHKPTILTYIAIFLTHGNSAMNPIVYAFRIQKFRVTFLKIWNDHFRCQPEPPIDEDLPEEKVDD

[3] = pKa determination with co-solvent titrations; format: physicochemical; conditions: read-out: pKa (s)
[4] = test system: A2 receptor; assay: A2 receptor functional activity, relaxation of isolated trachea pre-contracted with carbachol; design: species or system guinea-pig; conditions: for IC25, relaxation at A2 receptors of guinea-pig trachea: concentration for 25% of the maximum response to NECA, trachea precontracted with carbachol (100 nM)
[5] = Partition coefficient, propylene glycol dipelargonate (PGDP)/water model; format: physicochemical; conditions: 21.2 °C; for Log P(s): partition solvent propylene glycol dipelargonate (PGDP)/water, neutral species
From the text: The partition measurements were based on a long chain ester (propylene glycol dipelargonate-PGDP)/water model.

[6] = test system: guinea-pig isolated left atria; assay: Myocardial contractile dysfunction (stunning) after simulated ischaemia of isolated atria
Procedure: The following experiment was carried out to evaluate the efficacy of compound 6 in protecting against myocardial contractile dysfunction (stunning) after simulated ischaemia of isolated atria.
Guinea-pig isolated left atria were set up in tissue baths containing Krebs-bicarbonate solution gassed with 5% CO2 in oxygen at 37° C. and electrically paced at 2 Hz with pulses of threshold voltage +50% and 5 ms pulse width. Developed tension was recorded. After equilibrium, they were exposed to 30 min of simulated ischaemia by gassing with 5% CO2 in nitrogen and removing the glucose substrate which was replaced with choline chloride (7 mM) to maintain isotonicity. Pacing was continued throughout. After 30 min, the tissues were reoxygenated and glucose was returned. […] This partial recovery was the index of myocardial stunning. […] This timing was to simulate administration at the time of reperfusion induced by thrombolyic therapy following myocardial infarction.

[7] = e.g. from about 70 mm Hg to about 90 mm Hg; cited from earlier work
[8] = empiric evidence; cited from earlier work

Molecule: CNC(=O)[C@H]1O[C@@H](n2cnc3c(NCc4cc(I)c5oc(N(C)C)nc5c4)ncnc32)C(O)C1O (stereo partly shown) [Compound 6, N^6-[(2-dimethylamino-7-iodo-1,3-benzoxazol-5-yl)-methyl]-adenosine-5′-N-methyluronamide]
Potency for binding to the human A3 receptor (in words) [1]: picomolar potency
% Displacement of [125I]-AB-MECA ([1]; Concentration (Log M) −7): 94%
% Displacement of [125I]-AB-MECA ([1]; Concentration (Log M) −9): 79%
% Displacement of [125I]-AB-MECA ([1]; Concentration (Log M) −10): 73%
% Displacement of [125I]-AB-MECA ([1]; Concentration (Log M) −11): 68%
% Displacement of [125I]-AB-MECA ([1]; Concentration (Log M) −12): 47%
A3 binding potency compared with IB-MECA ([1]; comparison of IC50 values of Table 1): approximately two orders of magnitude more potent
IC50 [1]: 0.0016 nM
IC25, negative inotropic action at A1 receptors of guinea-pig atria [2]: 1000 nM
Selectivity for A3 receptors (radioligand binding) against A1 receptors (negative inotropy) ([2]; ratio of atrial functional value to A3 binding IC50): 6.25×10^6
IC50 ([2]; read-out: IC50, negative inotropic action at A1 receptors of guinea-pig atria): 10000 nM
pKa [3]: 3.66 ± 0.03
IC25, relaxation at A2 receptors of guinea-pig trachea [4]: 9070 nM
Selectivity for A3 receptors (radioligand binding) against A2 receptors (tracheal relaxation) ([4]; ratio of tracheal functional value to A3 binding IC50): 5.6×10^6
Log D ([5]; partition solvent PGDP/water): 1.483
Log P(s) [5]: 1.484
Log P(s) ([5]; listed as compound 10): 1.48±0.03
Maximum developed contractile tension (%), Post-ischaemic, Mean ([6]; Compound 6 5 × 10^−9 M at reoxygenation, % of pre-ischaemic value, n=3): 84.0%
Maximum developed contractile tension (%), Post-ischaemic, Mean ([6]; Compound 6 5 × 10^−9 M at reoxygenation, % of pre-ischaemic value, n=3, listed as compound 6): 84.0±18.0%
Maximum developed contractile tension, Post-ischaemic ([6]; Compound 6 5 × 10^−9 M introduced at reoxygenation after 30 min simulated ischaemia, single experiments): 0.72 g and 0.42 g and 0.40 g

Molecule: CNC(=O)[C@H]1O[C@@H](n2cnc3c(NCc4cc(I)c5oc(N(C)C)nc5c4)nc(C#Cc4ccccc4)nc32)[C@H](O)[C@@H]1O [Compound 8, N^6-[(2-dimethylamino-7-iodo-1,3-benzoxazol-5-yl)-methyl]-2-(2-phenyl-1-ethynyl)-adenosine-5′-N-methyluronamide]
IC50 [1]: 21 to 80 nM

Molecule: CNC(=O)[C@H]1O[C@@H](n2cnc3c(NCc4cccc(I)c4)ncnc32)[C@H](O)[C@@H]1O [IB-MECA]
Increase in basal or systemic blood pressure [7]: 10-30%
Maximum developed contractile tension (%), Post-ischaemic, Mean ([6]; IB-MECA 3 × 10^−7 M at reoxygenation, % of pre-ischaemic value, 6 experiments): 66.5±6.5% and 66.5%
Maximum developed contractile tension (%), Post-ischaemic ([6]; IB-MECA 3 × 10^−7 M at reoxygenation, % of pre-ischaemic value, single experiments): 83.3% and 45.5% and 60% and 63% and 87.5%

Molecule: CCNC(=O)[C@H]1O[C@@H](n2cnc3c(N)ncnc32)[C@H](O)[C@@H]1O [NECA, N-ethylcarboxamidoadenosine, reference compound]
IC25, negative inotropic action at A1 receptors of guinea-pig atria [2]: 52 nM
IC25, relaxation at A2 receptors of guinea-pig trachea [4]: 940 nM

Molecule: CC(C)NCC(O)COc1cccc2ccccc12 (stereo not shown) [propranolol]
Effective partition after allowing for protonation, log10 PGDP/H2O scale [8]: ~0.8

Molecule: N^6-(4-iodo-2-picolyl)-adenosine-5′-N-methyluronamide [Compound 2]
IC50 [1]: 0.45 nM

Next, values leading:

IC50 [1]: 2.2 nM
Molecule: CNC(=O)[C@H]1O[C@@H](n2cnc3c(NCc4cc(C)ccn4)ncnc32)C(O)C1O (stereo partly shown) [Compound 1, N^6-(4-methyl-2-picolyl)-adenosine-5′-N-methyluronamide]

IC50 [1]: 6 nM
melting point: 84 to 86 °C
Molecule: CNC(=O)[C@H]1O[C@@H](n2cnc3c(NCc4ccccn4)ncnc32)C(O)C1O (stereo partly shown) [Compound 3, N^6-(2-picolyl)adenosine-5′-N-methyluronamide]

IC50 [1]: 0.4 nM
melting point: 226 to 228 °C
Molecule: CNC(=O)[C@H]1O[C@@H](n2cnc3c(NCc4cccc(C(C)=O)n4)ncnc32)C(O)C1O (stereo partly shown) [Compound 4, N^6-(6-acetyl-2-picolyl)adenosine-5′-N-methyluronamide]

IC50 [1]: 31 to 45 nM
Molecule: CNC(=O)[C@H]1O[C@@H](n2cnc3c(NCc4cc(I)ccn4)nc(C#Cc4ccccc4)nc32)[C@H](O)[C@@H]1O [Compound 5, N^6-(4-iodo-2-picolyl)-2-(2-phenyl-1-ethynyl)-adenosine-5′-N-methyluronamide]

IC50 [1]: 450 nM
pKa [3]: 3.61
melting point: 239 to 241 °C
Molecule: CNC(=O)[C@H]1O[C@@H](n2cnc3c(NCc4ccc5oc(N(C)C)nc5c4)ncnc32)C(O)C1O (stereo partly shown) [Compound 7, N^6-[(2-Dimethylamino-1,3-benzoxazol-5-yl)-methyl]-adenosine-5′-N-methyluronamide]
